The target in this experiment is T1, YcgRLIC_11920.
T1 construct: gene LIC_11920; full-length protein, N-terminal 6x histidine tag
Nature of the experiment: ITC ([…] °C; […] at […] °C), […] c-di-GMP:protein stoichiometry. The class given is binding.

SMILES strings stand for the structures.

Compound `Nc1nc2c(ncn2[C@@H]2O[C@@H]3COP(=O)(O)O[C@H]4[C@@H](O)[C@H](n5cnc6c(=O)[nH]c(N)nc65)O[C@@H]4COP(=O)(O)O[C@H]3[C@H]2O)c(=O)[nH]1` [c-di-GMP] showed a Kd of 60 nM.

For orientation: Kd means the free concentration of one partner at which half of the binding sites on the other are occupied at equilibrium, for simple one-to-one binding. The low end stands for tighter binding, the high end for weaker binding.

Values taken from publication PMC11800159, “Insertion of a Divergent GAF-like Domain Defines a Novel Family of YcgR Homologues That Bind c-di-GMP in Leptospirales” (ACS Omega, 2025).
